Experimental data published in PubChem BioAssay (NCI).
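Values below derive from 48-hour exposures of cells grown in 96-well plates, with endpoints linearly interpolated between the two concentrations bracketing the appropriate inhibition level. TGI is the concentration that stops growth completely.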

What was measured:
Assay in all cases: NCI anticancer screen, dose series, 48 h
[1] = test system: 786-0 renal
[2] = test system: A498 renal
[3] = test system: A549 NSCLC
[4] = test system: ACHN renal
[5] = test system: BT-549 breast
[6] = test system: CAKI-1 renal
[7] = test system: CCRF-CEM leukemia
[8] = test system: COLO 205 colon
[9] = test system: DU-145 prostate
[10] = test system: EKVX NSCLC
[11] = test system: HCC-2998 colon
[12] = test system: HCT-116 colon
[13] = test system: HCT-15 colon
[14] = test system: HL-60(TB) leukemia
[15] = test system: HOP-62 NSCLC
[16] = test system: HOP-92 NSCLC
[17] = test system: HS 578T breast
[18] = test system: HT29 colon
[19] = test system: IGROV1 ovarian
[20] = test system: K-562 leukemia
[21] = test system: KM12 colon
[22] = test system: LOX IMVI melanoma
[23] = test system: M14 melanoma
[24] = test system: MCF7 breast
[25] = test system: MDA-MB-231 breast
[26] = test system: MDA-MB-435
[27] = test system: MDA-N
[28] = test system: MOLT-4 leukemia
[29] = test system: NCI-H23 lung
[30] = test system: NCI-H460 lung
[31] = test system: NCI-H522 lung
[32] = test system: NCI/ADR-RES ovarian
[33] = test system: OVCAR-3 ovarian
[34] = test system: OVCAR-4 ovarian
[35] = test system: OVCAR-5 ovarian
[36] = test system: OVCAR-8 ovarian
[37] = test system: PC-3 prostate
[38] = test system: RXF 393 renal
[39] = test system: SF-268 CNS
[40] = test system: SF-295 CNS
[41] = test system: SF-539 CNS
[42] = test system: SK-MEL-2 melanoma
[43] = test system: SK-MEL-28 melanoma
[44] = test system: SK-MEL-5 melanoma
[45] = test system: SN12C renal
[46] = test system: SNB-19 CNS
[47] = test system: SNB-75 CNS
[48] = test system: SR leukemia
[49] = test system: SW-620 colon
[50] = test system: T-47D breast
[51] = test system: TK-10 renal
[52] = test system: U251 CNS
[53] = test system: UACC-257 melanoma
[54] = test system: UACC-62 melanoma
[55] = test system: UO-31 renal
[56] = test system: MALME-3M melanoma
[57] = test system: RPMI-8226 leukemia
[58] = test system: SK-OV-3 ovarian
[59] = test system: NCI-H226 lung

## CC(C)N(C(=O)C12C3(C(=O)C(C)(C)C)C4C5(C#N)C3C1(C(=O)C(C)(C)C)C5C42C(=O)C(C)(C)C)C(C)C (configuration not stated)
[1]
  TGI: > 100 µM
[2]
  TGI: > 100 µM
[3]
  TGI: > 100 µM
[4]
  TGI: > 100 µM
[5]
  TGI: > 100 µM
[6]
  TGI: > 100 µM
[7]
  TGI: > 100 µM
[8]
  TGI: > 100 µM
[9]
  TGI: > 100 µM
[10]
  TGI: > 100 µM
[11]
  TGI: > 100 µM
[12]
  TGI: > 100 µM
[13]
  TGI: > 100 µM
[14]
  TGI: > 100 µM
[15]
  TGI: > 100 µM
[16]
  TGI: > 100 µM
[17]
  TGI: > 100 µM
[18]
  TGI: > 100 µM
[19]
  TGI: > 100 µM
[20]
  TGI: > 100 µM
[21]
  TGI: > 100 µM
[22]
  TGI: > 100 µM
[23]
  TGI: > 100 µM
[24]
  TGI: > 100 µM
[25]
  TGI: > 100 µM
[26]
  TGI: > 100 µM
[27]
  TGI: > 100 µM
[28]
  TGI: > 100 µM
[29]
  TGI: > 100 µM
[30]
  TGI: > 100 µM
[31]
  TGI: > 100 µM
[32]
  TGI: > 100 µM
[33]
  TGI: > 100 µM
[34]
  TGI: > 100 µM
[35]
  TGI: > 100 µM
[36]
  TGI: > 100 µM
[37]
  TGI: > 100 µM
[38]
  TGI: > 100 µM
[39]
  TGI: > 100 µM
[40]
  TGI: > 100 µM
[41]
  TGI: > 100 µM
[42]
  TGI: > 100 µM
[43]
  TGI: > 100 µM
[44]
  TGI: > 100 µM
[45]
  TGI: > 100 µM
[46]
  TGI: > 100 µM
[47]
  TGI: 91 µM
[48]
  TGI: > 100 µM
[49]
  TGI: > 100 µM
[50]
  TGI: > 100 µM
[51]
  TGI: > 100 µM
[52]
  TGI: > 100 µM
[53]
  TGI: > 100 µM
[54]
  TGI: > 100 µM
[55]
  TGI: > 100 µM

## Oc1c(Cl)cc(CN(Cc2cc(Cl)c(O)c(Cl)c2)C2CCCCC2)cc1Cl
[1]
  TGI: > 100 µM
[2]
  TGI: > 100 µM
[3]
  TGI: > 100 µM
[4]
  TGI: > 100 µM
[5]
  TGI: > 100 µM
[6]
  TGI: > 100 µM
[8]
  TGI: > 100 µM
[9]
  TGI: > 100 µM
[10]
  TGI: > 100 µM
[12]
  TGI: > 100 µM
[13]
  TGI: > 100 µM
[15]
  TGI: > 100 µM
[16]
  TGI: > 100 µM
[17]
  TGI: > 100 µM
[18]
  TGI: > 100 µM
[19]
  TGI: > 100 µM
[20]
  TGI: > 100 µM
[21]
  TGI: > 100 µM
[22]
  TGI: > 100 µM
[23]
  TGI: > 100 µM
[56]
  TGI: > 100 µM
[24]
  TGI: > 100 µM
[25]
  TGI: > 100 µM
[26]
  TGI: > 100 µM
[27]
  TGI: > 100 µM
[28]
  TGI: > 100 µM
[29]
  TGI: > 100 µM
[30]
  TGI: > 100 µM
[31]
  TGI: > 100 µM
[32]
  TGI: > 100 µM
[33]
  TGI: > 100 µM
[34]
  TGI: > 100 µM
[35]
  TGI: > 100 µM
[36]
  TGI: > 100 µM
[37]
  TGI: > 100 µM
[57]
  TGI: > 100 µM
[38]
  TGI: > 100 µM
[39]
  TGI: > 100 µM
[40]
  TGI: > 100 µM
[41]
  TGI: > 100 µM
[42]
  TGI: > 100 µM
[43]
  TGI: > 100 µM
[44]
  TGI: > 100 µM
[58]
  TGI: > 100 µM
[45]
  TGI: > 100 µM
[46]
  TGI: > 100 µM
[47]
  TGI: > 100 µM
[48]
  TGI: > 100 µM
[49]
  TGI: > 100 µM
[50]
  TGI: > 100 µM
[51]
  TGI: > 100 µM
[52]
  TGI: > 100 µM
[53]
  TGI: > 100 µM
[54]
  TGI: > 100 µM
[55]
  TGI: > 100 µM

## COC(=O)C1=CO[C@@H](OC2OC(CO)C(O)C(O)C2O)[C@@H]2[C@H](C)[C@@H](O)[C@@H](O)[C@]12O (some centres not stated)
[1]
  TGI: > 100 µM
[2]
  TGI: > 100 µM
[3]
  TGI: > 100 µM
[4]
  TGI: > 100 µM
[5]
  TGI: > 100 µM
[6]
  TGI: > 100 µM
[8]
  TGI: > 100 µM
[9]
  TGI: > 100 µM
[10]
  TGI: > 100 µM
[11]
  TGI: > 100 µM
[12]
  TGI: > 100 µM
[13]
  TGI: > 100 µM
[14]
  TGI: > 100 µM
[15]
  TGI: > 100 µM
[16]
  TGI: > 100 µM
[17]
  TGI: > 100 µM
[18]
  TGI: > 100 µM
[19]
  TGI: > 100 µM
[21]
  TGI: > 100 µM
[22]
  TGI: > 100 µM
[23]
  TGI: > 100 µM
[56]
  TGI: > 100 µM
[24]
  TGI: > 100 µM
[25]
  TGI: > 100 µM
[26]
  TGI: > 100 µM
[27]
  TGI: > 100 µM
[28]
  TGI: > 100 µM
[59]
  TGI: > 100 µM
[29]
  TGI: > 100 µM
[31]
  TGI: > 100 µM
[32]
  TGI: > 100 µM
[33]
  TGI: > 100 µM
[35]
  TGI: > 100 µM
[36]
  TGI: > 100 µM
[37]
  TGI: > 100 µM
[57]
  TGI: > 100 µM
[38]
  TGI: > 100 µM
[39]
  TGI: > 100 µM
[40]
  TGI: > 100 µM
[41]
  TGI: > 100 µM
[42]
  TGI: > 100 µM
[43]
  TGI: > 100 µM
[44]
  TGI: > 100 µM
[58]
  TGI: > 100 µM
[45]
  TGI: > 100 µM
[46]
  TGI: > 100 µM
[47]
  TGI: > 100 µM
[48]
  TGI: > 100 µM
[49]
  TGI: > 100 µM
[50]
  TGI: > 100 µM
[51]
  TGI: > 100 µM
[52]
  TGI: > 100 µM
[53]
  TGI: > 100 µM
[54]
  TGI: > 100 µM
[55]
  TGI: > 100 µM

## CCCCCCCC(=O)NS(=O)(=O)c1ccccc1
[1]
  TGI: > 100 µM
[2]
  TGI: > 100 µM
[3]
  TGI: > 100 µM
[4]
  TGI: > 100 µM
[5]
  TGI: > 100 µM
[6]
  TGI: > 100 µM
[7]
  TGI: > 100 µM
[8]
  TGI: > 100 µM
[9]
  TGI: > 100 µM
[10]
  TGI: > 100 µM
[11]
  TGI: > 100 µM
[12]
  TGI: > 100 µM
[13]
  TGI: > 100 µM
[14]
  TGI: > 100 µM
[15]
  TGI: > 100 µM
[17]
  TGI: > 100 µM
[18]
  TGI: > 100 µM
[19]
  TGI: > 100 µM
[20]
  TGI: > 100 µM
[21]
  TGI: > 100 µM
[22]
  TGI: > 100 µM
[23]
  TGI: > 100 µM
[56]
  TGI: > 100 µM
[25]
  TGI: > 100 µM
[26]
  TGI: > 100 µM
[27]
  TGI: > 100 µM
[28]
  TGI: > 100 µM
[29]
  TGI: > 100 µM
[30]
  TGI: > 100 µM
[31]
  TGI: > 100 µM
[32]
  TGI: > 100 µM
[33]
  TGI: > 100 µM
[34]
  TGI: > 100 µM
[36]
  TGI: > 100 µM
[37]
  TGI: > 100 µM
[57]
  TGI: > 100 µM
[39]
  TGI: > 100 µM
[40]
  TGI: > 100 µM
[41]
  TGI: > 100 µM
[42]
  TGI: > 100 µM
[43]
  TGI: > 100 µM
[44]
  TGI: > 100 µM
[58]
  TGI: > 100 µM
[46]
  TGI: > 100 µM
[47]
  TGI: > 100 µM
[48]
  TGI: > 100 µM
[49]
  TGI: > 100 µM
[50]
  TGI: > 100 µM
[51]
  TGI: > 100 µM
[52]
  TGI: > 100 µM
[54]
  TGI: > 100 µM
[55]
  TGI: > 100 µM
